# Tests used:
# [1] = test system: hBMSCs/blood clot construct; assay: In vitro MFx model: chondrogenesis of hBMSCs/blood clot construct; assay type: cell-based, human; conditions: expected
# Excerpt: The cause of post-Mfx fibrocartilage formation remains unclear. An in vitro model hereof may be used to simulate post-MFx tissue remodeling for further study and/or optimization of methodologies hereof Since harvesting human post-MFx clots is not feasible, as one of the initial steps toward human studies/clinical trials, one may simulate such a post-MFx clot by encapsulating stem cells such as hBMSCs within a clot derived from human peripheral blood as described herein. Optimization studies hereof may thus proceed via such a novel in vitro model which simulates post-MFx fibrocartilage formation (see FIG. 3) and assess treatment efficacy. As illustrated schematically in FIG. 4, to mimic the post-MFx clot, stem cells such as human bone marrow-derived stem cells (hBMSCs), the likely progenitor cells contributing to MFx repair, are encapsulated within clots derived from human peripheral blood. hBMSCs/blood clot may be differentiated using, for example, a chondroinductive factor such as insulin growth factor-1 (IGF-1), one of the major synovial fluid chondroinductive factors. The hBMSCs/blood clot may, for example, be induced to differentiate into fibrocartilage upon stimulation by IGF-1 (and/or other chondroinductive factor(s)), at physiological concentration. Application of Wnt inhibitors such lorecivivint in the model allows study of the augmentation of chondrogenesis and/or reduction of fibrosis. The hBMSCs/blood clot is thereby induced to differentiate into fibrocartilage upon such stimulation. Lorecivivint and/or other Wnt inhibitor are added to the clot to study the augmentation of chondrogenesis and reduction of fibrosis.
# B. In vitro model—chondrogenesis of hBMSCs/blood clot construct. hBMSCs/blood clots may, for example, be cultured in differentiation medium containing either 0, 10, 20, 50, or 100 ng/ml IGF-1. Lorecivivint may be introduced using the concentrations described above
# Preparation of hBMSCs/blood clot construct. […]
# [2] = test system: in vitro-expanded human chondrocytes; assay: Western blot analysis of human chondrocytes treated for 3 days; assay type: cell-based; conditions: vs saline control (FIG. 2)
# Excerpt: FIG. 2 illustrates Western blot analysis for human chondrocytes treated with saline control (CON) and lorecivivint (LRC) for 3 days.
# In that regards, FIG. 3 illustrates post-MFx events including: A) clot formation; B) stem cell migration, C) fibrogenesis, D) chondrogenesis and bone healing, and E) degeneration. To facilitate rapid clinical translation, it is desirable to repurpose clinically proven. human-safe Wnt inhibitors. Specifically, the Wnt inhibitor lorecivivint (SM04690), which suppresses CDC-like kinase 2 (CLK2) and dual-specificity tyrosine phosphorylation-regulated kinase 1A (DYRK1A) as well as Wnt/β-catenin signaling, has shown promising results for knee osteoarthritis as discussed above. […] The reparative outcome of Wnt- (for example, lorecivivint-) enhanced MFx provides an avenue to achieve long-term hyaline cartilage repair with a minimally invasive and cost-effective procedure, unattainable by current surgical procedures.
# OA progression in rats = conditions: intraarticular, 0.3 μg dissolved in 50 μl saline (~12 nM); cited from earlier work
# [3] = cited from earlier work
# humans = conditions: cited from earlier work
# [4] = single intraarticular injection; cited from earlier work
# hBMSC = conditions: lorecivivint alone, cited from earlier work
# [5] = test system: human bone marrow-derived stem cell (hBMSC)-derived cartilage; assay: COL1 expression and deposition in hBMSC-derived cartilage under Wnt inhibition (gene expression, immunofluorescence); assay type: cell-based
# Excerpt: FIG. 1 illustrates a comparison of COL1 gene expression in Control and Wnt inhibition (Optimized) group. […] B) Collagen type 1 detection by immunofluorescence. Control group (i-iii); Optimized group (iv-vi). […] Bar −50 μm. […] In general, as used herein small molecule (therapeutic) compounds may, for example, have a molecular weight below 1.5 kDa or below 1.0 kDa.
SMILES,COL1 immunostaining ([1]; treated constructs),"COL1, 3, FN, α-SMA expression levels ([1]; vs untreated group)","COL2, AGG, SOX9, COMP, PRG4, and COL2/COL1 expression levels ([1]; vs untreated group)",COL1 expression [2],OA progression (OA progression in rats),solubility [3],safety of injection (humans),knee joint residence time [4],COL1 expression (hBMSC; hBMSC chondrogenesis),initiation of hBMSC chondrogenesis (hBMSC),chondrogenesis [5],"COL1 expression ([5]; compared to controls (FIG. 1A), p<0.05)","COL1 protein deposition ([5]; immunofluorescence, compared to controls (FIG. 1B))"
CC(C)CC(=O)Nc1cncc(-c2ccc3[nH]nc(-c4nc5cncc(-c6cccc(F)c6)c5[nH]4)c3c2)c1 [lorecivivint],absent or localized only to the marginal regions,significantly lower,higher than untreated group,significantly reduced,significantly ameliorates,~5 mM,safe,> 180 days,minimal,sufficient to initiate hBMSC chondrogenesis,,,
Oc1nc(-c2ccc(C(F)(F)F)cc2)nc2c1CSCC2 [XAV939],,,,,,,,,,,without impairing chondrogenesis,significantly lowers,significantly lowers

# From patent publication US20240226078A9, “ENHANCEMENT OF MICROFRACTURE FOR REPAIRING CARTILAGE DEFECTS VIA WNT INHIBITION” (University of Pittsburgh - Of the Commonwealth System of …, priority 2021, published 2024)
